Like-named read-outs stand apart in the source and are kept apart here.
Key:
CCK-A receptors = settings: cited from earlier work
CCK-B receptors = settings: cited from earlier work
[1] = tested on: CCK-A and CCK-B receptors; settings: cited from earlier work
humans = settings: cited from earlier work
[2] = Deschodt-Lanckman et al.; cited from earlier work
[3] = tested on: exploratory behavior of the rat; settings: McElroy et al.; cited from earlier work
anxiety (mice) = settings: rodents; Crawley / Jones; cited from earlier work
[4] = tested on: exploratory behavior of the rat; assay: Exploratory behavior in automated activity cages, novel environment; format: in vivo, rat (Male Sprague Dawley); settings: CCK-8 0.5-16 μg/kg i.p., 30 minutes; F(6,87)=3.21 (p<0.01)
Experimental: B. The effects of CCK-8 and compound A on the exploratory behavior of the rat were examined in automated activity cages and by direct observation. It is known that exogenous CCK-8 decreases exploratory behavior in rats in a novel environment by accelerating the process of habituation. [See Crawley, Pharm. Biochem & Behav. 20, 23-27 (1984).]
Expt 1. Male Sprague Dawley rats were injected ([…].) with CCK-8 and immediately placed in automated activity cages. Activity was measured for 30 minutes past injection.
Expt 2. Male SD rats were injected (s.c.) with the CCK antagonist compound A (0.0001-10 mg/kg) and immediately placed in the automated activity cages.

Row | Molecule | Affinity for CCK-A receptors (CCK-A receptors) | Affinity for CCK-B receptors (CCK-B receptors) | Receptor selectivity as agonist [1] | other results
1 | CSCC[C@H](NC(=O)[C@@H](N)Cc1c[nH]c2ccccc12)C(=O)N[C@@H](CC(=O)O)C(=O)N[C@@H](Cc1ccccc1)C(N)=O [CCK-4] | lower affinity | high affinity | preferential CCK-B receptor agonist | Effect in humans (panic, gastrointestinal effects) (humans; in vivo): induce panic
2 | CSCC[C@H](NC(=O)[C@H](Cc1ccc(OS(=O)(=O)O)cc1)NC(=O)[C@@H](N)CC(=O)O)C(=O)NCC(=O)N[C@@H](Cc1c[nH]c2ccccc12)C(=O)N[C@@H](CCSC)C(=O)N[C@@H](CC(=O)O)C(=O)N[C@@H](Cc1ccccc1)C(N)=O [CCK-8s, H-Asp-Tyr(SO3 H)-Met-Gly-Trp-Met-Asp-Phe-NH2] | high affinity | high affinity | – | Half-life [2]: less than 1 hour
3 | CNC1=Nc2ccc(Cl)cc2C(c2ccccc2)=[N+]([O-])C1 [chlordiazepoxide] | – | – | – | Spontaneous locomotor activity in rats in a novel environment [3]: increases spontaneous locomotor activity
4 | CN1C(=O)CN=C(c2ccccc2)c2cc(Cl)ccc21 [diazepam] | – | – | – | Preference of the animal for the black dimly lit side (anxiety (mice)): decrease the preference of the animal for the black dimly lit side of the apparatus
5 | CCK-8: exogenous CCK-8, equipotent as an agonist at CCK-A and CCK-B receptors | – | – | equipotent as an agonist at CCK-A and CCK-B receptors | Locomotor activity [4]: dose-dependently decreased locomotor activity; Effect in humans (panic, gastrointestinal effects) (humans; studies in humans): induced gastrointestinal effects but not panic symptoms
